Source: patent US20180200233A1, “COMPOSITIONS FOR PREVENTING CANCERS ASSOCIATED WITH HUMAN PAPILLOMA VIRUSES” (Loma Linda University, priority 2015, published 2018)

What was measured:
GST-E6/His-caspase 8 = biological target: T1, GST-E6/His-caspase 8 (Human papillomavirus type 16, UniProt P03126); assay: AlphaScreen bead-based assay, GST-E6/His-caspase 8 binding; design: species or system HPV 16
T1 construct: made in house
Procedure: FIGS. 2A-C are graphs providing data regarding inhibition of protein-protein interactions by 3-(1H-indol-1yl)propan-1-amine (1), three benzimidazole derivatives (2-4), and spinacine (5). Compounds, at the indicated concentrations (1.4 μM to 3.2 mM) were tested using a bead-based screening assay for their ability to inhibit three different protein/protein interactions: (FIG. 2A) GST-E6/His-caspase 8; (FIG. 2B) GST-E6/HisE6AP; and (FIG. 2C) GST-caspase 8/His-caspase 8. Binding in the presence of 1.4 μM of the test compound was set at 100%. Experiments were performed in triplicate, and error bars indicate the standard deviation.
HPV E6 binds to caspase 8 (Garnett, T. O., M. Filippova, and P. J. Duerksen-Hughes, Accelerated degradation of FADD and procaspase 8 in cells expressing human papilloma virus 16 E6 impairs TRAIL-mediated apoptosis. Cell death and differentiation, 2006. 13(11): p. 1915-26), and myricetin can block the E6/caspase 8 interaction in vitro (Yuan, C. H., et al., Small molecule inhibitors of the HPV16-E6 interaction with caspase 8. Bioorganic & medicinal chemistry letters, 2012. 22(5): p. 2125-9). A bead-based assay based on AlphaScreen™ technology (Perkin-Elmer) is used to identify inhibitors of the E6/caspase 8 interaction (Yuan, C. H., et al., Small molecule inhibitors of the HPV16-E6 interaction with caspase 8. Bioorganic & medicinal chemistry letters, 2012. 22(5): p. 2125-9). The ActiProbe 2K (2,000 compounds) library was screened using the same approach. […] Analysis of the structures and physical/chemical characteristics of those molecules led to the selection of five additional compounds: 3-(1H-indol-1-yl)propan-1-amine methanesulfonate (1), benzimidazole (2), 1H-benzimidazole-1-methanol (3), 2-(methoxymethyl)-1H-benzimidazole (4), and spinacine (5) for further study (FIG. 1).
To determine the dose-responsiveness of these five compounds, variable concentrations of those small molecules were first tested for their ability to inhibit E6/caspase binding. […] These molecules, which had been selected for their ability to interfere with E6/caspase 8 binding, were then tested to determine if they could also affect other interactions of E6, such as its binding to E6-associated protein (E6AP). The E6/E6AP interaction is required for the E6-mediated acceleration of p53 degradation (Huibregtse, J. M., M. Scheffner, and P. M. Howley, A cellular protein mediates association of p53 with the E6 oncoprotein of human papillomavirus types 16 or 18. The EMBO journal, 1991. 10(13): p. 4129-35).
Alpha-Screen™ technology was used to assess the interactions between GST-E6, GST-caspase 8, His-E6AP, and His-caspase 8. Binding assays were performed in white 384-well plates (Perkin-Elmer) in a total volume of 25 μl as previously described (Tungteakkhun, S. S., et al., The interaction between human papillomavirus type 16 and FADD is mediated by a novel E6 binding domain. Journal of virology, 2008. 82(19): p. 9600-14). Briefly, 5 μl (50 ng) of GST-E6 and 5 μl (87.5 ng) of His-caspase 8 were included in each reaction mixture with 5 μl blocking buffer (0.5 mg BSA, 0.5% Tween 20 in PBS) in the absence or presence of 10 μM of each test chemical. […] The mixture was incubated in the dark at room temperature overnight, and the emitted signal was detected using the Envision Multilabel plate reader (Perkin-Elmer). In the presence of test chemicals, the binding affinity was calculated as a percentage of the binding in the presence of carrier only (DMSO).

[1] = tested on: UPCI-SCC90-UP-Clone 35 (#90) cells; assay: MTT cell viability, HPV+ HNSCC cell line #90 with TRAIL; format: cell-based; conditions: HPV+ #90 cells, 50 ng/ml TRAIL
Procedure: FIGS. 7A-E are graphs showing myricetin and spinacine (5) re-sensitized HPV^+, but not HPV^−, head and neck cancer cell lines to treatment with TRAIL. (FIG. 7A) Both HPV^− and HPV^+ HN cancer cell lines display resistance to TRAIL treatment. HPV^− (#84) (Myricetin—FIG. 7B; Spinacine—FIG. 7C) and HPV^+ (#90) (FIG. 7D; Spinacine—FIG. 7E) head and neck cancer cell lines (2×10^4 cells per well) were seeded into 96-well plates and allowed to incubate overnight, then cells were pre-treated with myricetin (0-200 μM) or spinacine (0-100 μM) for 4 h. […] of TRAIL, along with cycloheximide (5 μg/ml) was added and cells were allowed to incubate overnight. Cell viability was measured by the MTT assay, and the viability of cells untreated with small molecules was set at 100%. Experiments were performed in triplicate, and error bars indicate the standard deviation.
As shown above, myricetin and spinacine sensitize SiHa cells to TRAIL and chemotherapy drugs. […] Other types of HPV^+ cancer cells were examined, and in particular, head and neck squamous cell carcinoma (HNSCC) cells can also be sensitized in this manner. […] For the combination experiments, 50 ng/ml TRAIL was applied in combination with either myricetin (0-200 μM) or spinacine (0-100 μM). […] In contrast […], TRAIL-induced cell death was enhanced 30% in UPCI-SCC90-UP-Clone 35, #90. Furthermore, 40 μM spinacine was able to enhance TRAIL-induced cell death in the HPV^+ #90 cell lines up to 50%.
The extracellular domain of human TRAIL was cloned into a pTriEx expression plasmid containing N-terminal Hisx6 tag. His-TRAIL was expressed in the E. coli BL-21 pLys strain and purified as previously described. Doxorubicin and cisplatin were purchased from Sigma. His-TRAIL, doxorubicin, and cisplatin were diluted in PBS to the desired concentration before using. […] All experiments were repeated at least three times (three biological replicates, carried out on different days), with each experimental group measured in triplicate within each of these individual experiments. […]

T1 sequence (P03126 whole entry): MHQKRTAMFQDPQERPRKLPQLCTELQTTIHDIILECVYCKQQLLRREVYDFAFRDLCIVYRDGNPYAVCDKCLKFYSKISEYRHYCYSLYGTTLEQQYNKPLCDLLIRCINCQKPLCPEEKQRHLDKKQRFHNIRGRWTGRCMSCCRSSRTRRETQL

SMILES: OCn1cnc2ccccc21 [Compound 3, 1H-benzimidazole-1-methanol]
- EC50 for GST-E6/His-caspase 8 interaction (GST-E6/His-caspase 8; bead-based assay, compounds tested 1.4 μM to 3.2 mM): No Inhibition

SMILES: O=C(O)C1Cc2[nH]cnc2CN1 (stereo not shown) [Compound 5, 4,5,6,7-Tetrahydro-1H-imidazo(4,5-c)pyridine-6-carboxylic acid]
- enhancement of TRAIL-induced cell death ([1]; 40 μM spinacine): up to 50%
- inhibition of E6/caspase 8 binding (in words) (GST-E6/His-caspase 8; FIG. 2A, primary screen at 10 μM): dose-dependent inhibition

SMILES: O=c1c(O)c(-c2cc(O)c(O)c(O)c2)oc2cc(O)cc(O)c12 [Myricetin, reference compound]
- enhancement of TRAIL-induced cell death ([1]; myricetin 0-200 μM): 30%
